The values below come from US20250084056A1, “SUBSTITUTED OXOISOINDOLINYL PIPERIDINE-2,6-DIONE COMPOUNDS” (BRISTOL-MYERS SQUIBB COMPANY, priority 2023, published 2025).

The structures appear in SMILES notation. A value given as a limit tells only on which side of the number the result lay.

Holding throughout (type): cell-based
In assay [1] the target is Cyclin E1 (Homo sapiens, UniProt P24864+Q96SW2). In words: Cyclin E1 Cellular Degradation Assay (MSD). Further details: endogenous in cells; host or cells: OVCAR3. As to conditions: for DC50 / Dmax: Cyclin E1 cellular degradation; for Dmax: maximum degradation; for Ratio of GSPT1 DC50/Cyclin E1 DC50: selectivity for degradation of Cyclin E1 over GSPT1. The method in brief:
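OVCAR3 cells treated with compound for 24 h at 37 °C, lysed, and cyclin E1 measured by MSD sandwich immunoassay (rabbit capture, mouse detection anti-CCNE1). Reference degrader at […] defined 110% response; DC50 and Dmax derived from response.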

In assay [2] the target is GSPT1 (Homo sapiens, UniProt P15170+Q96SW2). In words: GSPT1 Cellular Degradation Assay (DF15-GSPT1-ePL). The settings on record: DF15-GSPT1-ePL cells, 20 hours. Further details: expressed in transfected cells. Summed up:
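Human DF15 cells co-expressing a GSPT1–ePL fusion were treated with compound in RPMI 1640/10% FBS for 20 h at 37 °C. GSPT1 level was read by enzyme-fragment-complementation luminescence after 60 min with detection reagent. The reference degrader at […] defined 75% response; DC50 and Dmax were reported.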

The subject of assay [3] is Phospho-Rb (Ser807/811). In words: Phospho-Retinoblastoma (pRB) Cellular Assay. As to conditions: Homo sapiens, OVCAR-3, NIH OVCAR3 cells, 24 hours; for IC50: concentration giving 50% response; for Emax: maximum response, reference compound at 10 μM = 100%, read-out: pRB Ymax. The method in brief: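 OVCAR3 cells seeded overnight, then dosed with serial dilutions for 24 h at 37° C. Lysed with kit mix plus phosphatase inhibitor, ≥4 h at room temperature, read on EnVision; 100% response set by reference compound at 10 μM, giving IC50 and Ymax.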

Cyclin E1, sequence (P24864 whole entry): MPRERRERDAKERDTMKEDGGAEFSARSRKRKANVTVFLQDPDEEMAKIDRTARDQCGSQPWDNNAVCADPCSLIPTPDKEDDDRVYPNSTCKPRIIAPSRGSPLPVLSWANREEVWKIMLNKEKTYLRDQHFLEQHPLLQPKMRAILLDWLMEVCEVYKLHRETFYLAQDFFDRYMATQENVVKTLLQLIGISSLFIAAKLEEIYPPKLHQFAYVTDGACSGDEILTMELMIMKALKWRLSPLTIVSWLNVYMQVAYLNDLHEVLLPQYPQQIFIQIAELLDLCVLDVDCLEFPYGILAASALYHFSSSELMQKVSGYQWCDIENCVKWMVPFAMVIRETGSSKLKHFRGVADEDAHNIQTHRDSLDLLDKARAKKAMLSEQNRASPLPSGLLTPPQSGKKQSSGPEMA
Cyclin E1, sequence (Q96SW2 whole entry): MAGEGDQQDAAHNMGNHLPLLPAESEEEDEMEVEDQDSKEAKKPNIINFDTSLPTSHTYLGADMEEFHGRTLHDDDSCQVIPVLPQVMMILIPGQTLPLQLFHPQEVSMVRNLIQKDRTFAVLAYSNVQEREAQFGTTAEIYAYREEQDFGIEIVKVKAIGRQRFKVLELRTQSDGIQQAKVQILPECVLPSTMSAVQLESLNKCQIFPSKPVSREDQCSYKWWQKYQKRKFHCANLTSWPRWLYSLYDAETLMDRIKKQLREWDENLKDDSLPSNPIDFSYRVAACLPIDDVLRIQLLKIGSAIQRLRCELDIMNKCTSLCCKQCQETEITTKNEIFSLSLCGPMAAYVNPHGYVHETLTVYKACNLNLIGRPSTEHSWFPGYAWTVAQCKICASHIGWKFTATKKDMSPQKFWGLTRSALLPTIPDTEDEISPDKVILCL
Cyclin E1, sequence (Q16531 whole entry partner): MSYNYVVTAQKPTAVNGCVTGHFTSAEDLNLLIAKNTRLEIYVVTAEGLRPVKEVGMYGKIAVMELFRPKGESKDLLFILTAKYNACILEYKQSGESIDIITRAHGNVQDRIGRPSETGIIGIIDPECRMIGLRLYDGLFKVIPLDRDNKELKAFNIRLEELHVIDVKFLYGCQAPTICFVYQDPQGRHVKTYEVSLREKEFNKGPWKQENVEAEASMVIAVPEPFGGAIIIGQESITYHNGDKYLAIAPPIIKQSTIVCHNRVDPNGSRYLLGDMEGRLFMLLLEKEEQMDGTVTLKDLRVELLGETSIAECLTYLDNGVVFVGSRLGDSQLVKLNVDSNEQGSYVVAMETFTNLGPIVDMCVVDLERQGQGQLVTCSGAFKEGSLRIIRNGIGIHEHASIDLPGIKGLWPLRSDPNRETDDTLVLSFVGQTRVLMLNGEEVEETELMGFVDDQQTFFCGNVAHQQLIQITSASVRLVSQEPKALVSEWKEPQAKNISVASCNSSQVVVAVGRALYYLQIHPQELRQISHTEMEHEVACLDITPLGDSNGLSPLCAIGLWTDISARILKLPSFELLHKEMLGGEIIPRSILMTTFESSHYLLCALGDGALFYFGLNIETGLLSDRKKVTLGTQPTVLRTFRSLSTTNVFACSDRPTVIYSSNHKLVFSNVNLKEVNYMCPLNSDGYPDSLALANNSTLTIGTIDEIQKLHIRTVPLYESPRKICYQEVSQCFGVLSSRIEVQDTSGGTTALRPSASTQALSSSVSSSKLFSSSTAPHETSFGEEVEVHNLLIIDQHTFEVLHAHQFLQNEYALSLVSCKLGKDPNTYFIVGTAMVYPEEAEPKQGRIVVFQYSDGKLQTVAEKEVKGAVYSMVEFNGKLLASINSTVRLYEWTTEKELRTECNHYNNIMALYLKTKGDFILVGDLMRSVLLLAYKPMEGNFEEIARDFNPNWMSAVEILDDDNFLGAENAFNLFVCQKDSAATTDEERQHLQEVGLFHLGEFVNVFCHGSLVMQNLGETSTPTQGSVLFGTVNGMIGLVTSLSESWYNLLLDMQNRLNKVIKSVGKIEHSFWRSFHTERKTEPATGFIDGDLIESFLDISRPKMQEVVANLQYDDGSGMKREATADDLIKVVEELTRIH
GSPT1, sequence (P15170 whole entry, the tested form may be a part): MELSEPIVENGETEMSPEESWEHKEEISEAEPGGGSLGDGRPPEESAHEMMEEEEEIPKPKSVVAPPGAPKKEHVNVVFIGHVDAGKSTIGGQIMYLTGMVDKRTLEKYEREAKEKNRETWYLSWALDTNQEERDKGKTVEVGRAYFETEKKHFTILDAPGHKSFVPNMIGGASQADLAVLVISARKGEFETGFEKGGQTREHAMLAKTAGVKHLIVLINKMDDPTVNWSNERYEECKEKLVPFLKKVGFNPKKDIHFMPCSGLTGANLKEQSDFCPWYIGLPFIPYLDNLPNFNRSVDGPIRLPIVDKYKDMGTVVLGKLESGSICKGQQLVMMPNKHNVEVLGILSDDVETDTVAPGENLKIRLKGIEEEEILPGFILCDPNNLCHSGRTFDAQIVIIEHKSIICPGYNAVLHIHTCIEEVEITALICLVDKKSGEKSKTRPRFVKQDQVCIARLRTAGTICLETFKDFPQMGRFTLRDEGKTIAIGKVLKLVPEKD
GSPT1, sequence (Q96SW2 whole entry, the tested form may be a part): as the sequence (Q96SW2 whole entry) above
GSPT1, sequence (Q16531 whole entry partner, the tested form may be a part): as the sequence (Q16531 whole entry partner) above

In the case of `COc1c(COC(=O)Nc2ccc(Oc3ccc(F)cc3Cl)cc2C)ccc2c1C(=O)N(C1CCC(=O)NC1=O)C2` (stereo not drawn) [Example 103, [2-(2,6-dioxopiperidin-3-yl)-4-methoxy-3-oxo-2,3-dihydro-1H-isoindol-5-yl]methyl N-[4-(2-chloro-4-fluorophenoxy)-2-methylphenyl]carbamate], in assay [1], it took 148 nM to reach half-maximal degradation (DC50), the Dmax was determined as 107% and the “Ratio of GSPT1 DC50/Cyclin E1 DC50” value is greater than 95. In addition, in assay [2], the DC50 is greater than 14000 nM and the Dmax is 22%. For the same compound, in assay [3], it took 86 nM to reach half-maximal inhibition (IC50) and the Emax came to 100%.
In the case of `O=C1CCC(N2Cc3ccc(COC(=O)Nc4ccc(Oc5ccc(F)c(F)c5)cc4)c(OC(F)F)c3C2=O)C(=O)N1` (stereo not drawn) [Example 61, [4-(difluoromethoxy)-2-(2,6-dioxopiperidin-3-yl)-3-oxo-2,3-dihydro-1H-isoindol-5-yl]methyl N-[4-(3,4-difluorophenoxy)phenyl]carbamate], in assay [1], the DC50 was determined as 157 nM, the Dmax came out at 104% and the “Ratio of GSPT1 DC50/Cyclin E1 DC50” value is on record as greater than 89. Also, in assay [2], the DC50 is greater than 14000 nM and the Dmax was determined as 22%. For the same compound, in assay [3], the IC50 came to 412 nM and the Emax was found to be 107%.
As to `COc1c(COC(=O)Nc2ccc(Oc3cc(C)cc(C)c3)cc2)ccc2c1C(=O)N(C1CCC(=O)NC1=O)C2` (stereo not drawn) [Example 12, [2-(2,6-dioxopiperidin-3-yl)-4-methoxy-3-oxo-2,3-dihydro-1H-isoindol-5-yl]methyl N-[4-(3,5-dimethylphenoxy)phenyl]carbamate], in assay [1], half-maximal degradation (DC50) was put at 82 nM, the Dmax came out at 100% and the “Ratio of GSPT1 DC50/Cyclin E1 DC50” value is on record as greater than 171. Besides, in assay [2], the DC50 is greater than 14000 nM and the Dmax came out at 11%. Moreover, in assay [3], the IC50 was found to be 483 nM and the Emax amounted to 111%.
`COc1c(COC(=O)Nc2ccc(Oc3ccc4ccsc4c3)cc2)ccc2c1C(=O)N(C1CCC(=O)NC1=O)C2` (stereo not drawn) [Example 115, [2-(2,6-dioxopiperidin-3-yl)-4-methoxy-3-oxo-2,3-dihydro-1H-isoindol-5-yl]methyl N-[4-(1-benzothiophen-6-yloxy)phenyl]carbamate]: in assay [1], it took 217 nM to reach half-maximal degradation (DC50), the Dmax worked out at 108% and the “Ratio of GSPT1 DC50/Cyclin E1 DC50” value stood at 48. In addition, in assay [2], the DC50 came out at 10300 nM and the Dmax amounted to 63%. Besides, in assay [3], half-maximal inhibition (IC50) was put at 247 nM and the Emax turned out to be 114%.
`COc1cc(Oc2ccccc2C(F)F)ccc1NC(=O)OCc1ccc2c(c1OC)C(=O)N(C1CCC(=O)NC1=O)C2` (stereo not drawn) [Example 88, [2-(2,6-dioxopiperidin-3-yl)-4-methoxy-3-oxo-2,3-dihydro-1H-isoindol-5-yl]methyl N-{4-[2-(difluoromethyl)phenoxy]-2-methoxyphenyl}carbamate]: in assay [1], the DC50 came out at 203 nM, the Dmax came to 104% and the “Ratio of GSPT1 DC50/Cyclin E1 DC50” value is greater than 69. Also, in assay [2], the DC50 is greater than 14000 nM and the Dmax is 30%. For the same compound, in assay [3], the IC50 is 227 nM and the Emax turned out to be 10%.
Turning to `COc1cc(Oc2cccc(F)c2)ccc1NC(=O)OCc1ccc2c(c1OC)C(=O)N(C1CCC(=O)NC1=O)C2` (stereo not drawn) [Example 48, [2-(2,6-dioxopiperidin-3-yl)-4-methoxy-3-oxo-2,3-dihydro-1H-isoindol-5-yl]methyl N-[4-(3-fluorophenoxy)-2-methoxyphenyl]carbamate], in assay [1], it took 139 nM to reach half-maximal degradation (DC50), the Dmax is 111% and the “Ratio of GSPT1 DC50/Cyclin E1 DC50” value is on record as greater than 101. For the same compound, in assay [2], the DC50 is greater than 14000 nM and the Dmax came out at 46%. In assay [3], the IC50 came to 69 nM and the Emax is 108%.
For `[2H]C1([2H])C(=O)NC(=O)[C@@]([2H])(N2Cc3ccc(COC(=O)Nc4ccc(Oc5ccc(F)c(F)c5)cc4)c(OC)c3C2=O)C1([2H])[2H]` [Example 180, {2-[(3S)-2,6-dioxo(3,4,4,5,5-^2H5s)piperidin-3-yl]-4-methoxy-3-oxo-2,3-dihydro-1H-isoindol-5-yl}methyl N-[4-(3,4-difluorophenoxy)phenyl]carbamate], in assay [1], the DC50 was determined as 60 nM, the Dmax was found to be 111% and the “Ratio of GSPT1 DC50/Cyclin E1 DC50” value is reported as greater than 233. In addition, in assay [2], the DC50 was greater than 14000 nM and the Dmax stood at 48%. Also, in assay [3], the IC50 turned out to be 54 nM and the Emax amounted to 108%.
For `COc1c(COC(=O)Nc2ccc(Oc3cccc(F)c3F)cc2F)ccc2c1C(=O)N(C1CCC(=O)NC1=O)C2` (stereo not drawn) [Example 22, [2-(2,6-dioxopiperidin-3-yl)-4-methoxy-3-oxo-2,3-dihydro-1H-isoindol-5-yl]methyl N-[4-(2,3-difluorophenoxy)-2-fluorophenyl]carbamate], in assay [1], half-maximal degradation (DC50) was put at 26 nM, the Dmax is 109% and the “Ratio of GSPT1 DC50/Cyclin E1 DC50” value is reported as 431. Moreover, in assay [2], the DC50 turned out to be 11400 nM and the Dmax worked out at 57%. For the same compound, in assay [3], the IC50 came to 263 nM and the Emax turned out to be 97%.
As for `COc1c(COC(=O)Nc2ccc(Oc3ccc(F)c(Cl)c3)cc2F)ccc2c1C(=O)N(C1CCC(=O)NC1=O)C2` (stereo not drawn) [Example 98, [2-(2,6-dioxopiperidin-3-yl)-4-methoxy-3-oxo-2,3-dihydro-1H-isoindol-5-yl]methyl N-[4-(3-chloro-4-fluorophenoxy)-2-fluorophenyl]carbamate], in assay [1], it took 97 nM to reach half-maximal degradation (DC50), the Dmax is 109% and the “Ratio of GSPT1 DC50/Cyclin E1 DC50” value is greater than 144. Also, in assay [2], the DC50 was greater than 14000 nM and the Dmax turned out to be 28%. In addition, in assay [3], 92 nM corresponded to half-maximal inhibition (IC50) and the Emax is 106%.
On to `COc1c(COC(=O)Nc2ccc(Oc3ccc4sccc4c3)cc2)ccc2c1C(=O)N(C1CCC(=O)NC1=O)C2` (stereo not drawn) [Example 114, [2-(2,6-dioxopiperidin-3-yl)-4-methoxy-3-oxo-2,3-dihydro-1H-isoindol-5-yl]methyl N-[4-(1-benzothiophen-5-yloxy)phenyl]carbamate], for which, in assay [1], the DC50 is 282 nM, the Dmax was determined as 106% and the “Ratio of GSPT1 DC50/Cyclin E1 DC50” value is greater than 50. Also, in assay [2], the DC50 is greater than 14000 nM and the Dmax turned out to be 29%. In assay [3], the IC50 is 640 nM and the Emax came out at 110%.
`COc1c(COC(=O)Nc2ccc(N(C)c3cccc(F)c3)cc2)ccc2c1C(=O)N(C1CCC(=O)NC1=O)C2` (stereo not drawn) [Example 8, [2-(2,6-dioxopiperidin-3-yl)-4-methoxy-3-oxo-2,3-dihydro-1H-isoindol-5-yl]methyl N-{4-[(3-fluorophenyl)(methyl)amino]phenyl}carbamate]: in assay [1], the DC50 was determined as 353 nM, the Dmax was determined as 104% and the “Ratio of GSPT1 DC50/Cyclin E1 DC50” value is listed as greater than 40. In assay [2], the DC50 is greater than 14000 nM and the Dmax was found to be 15%. Further, in assay [3], the IC50 came to 1230 nM and the Emax worked out at 99%.
Regarding `COc1c(COC(=O)Nc2ccc(Oc3cccc(Cl)c3)cc2F)ccc2c1C(=O)N(C1CCC(=O)NC1=O)C2` (stereo not drawn) [Example 26, [2-(2,6-dioxopiperidin-3-yl)-4-methoxy-3-oxo-2,3-dihydro-1H-isoindol-5-yl]methyl N-[4-(3-chlorophenoxy)-2-fluorophenyl]carbamate], in assay [1], the DC50 turned out to be 97 nM, the Dmax was 106% and the “Ratio of GSPT1 DC50/Cyclin E1 DC50” value is reported as greater than 145. Further, in assay [2], the DC50 is greater than 14000 nM and the Dmax stood at 32%. For the same compound, in assay [3], the midpoint of inhibition, the IC50, lay at 428 nM and the Emax was 96%.
